Test results taken from patent publication US12215173B2, “Kappa opioid receptor peptide amide ligands” (priority 2019, dated 2025).
Where two headings read alike, the source gives them in different places. Square brackets hold non-standard residues; d marks the D form. Peptide text beside a SMILES is read from it. * marks the point of attachment. Piperidin1yl(4-NH2,4-CO2Me) = COC(=O)C1(N)CCN(*)CC1; Pyrrolidinyl(3-NH2,3-CO2Me) = COC(=O)C1(N)CCN(*)C1; dAla(cPr) = N[C@H](CC1CC1)C(=O)O

Key:
[1] = target: recombinant human kappa (KOR) opioid receptor (Homo sapiens (Human), UniProt P41145); test: biochemical; type: binding; conditions: HEK293 cell membranes, 0.5 nM [3H]diprenorphine
[2] = target: recombinant human delta (DOR) opioid receptor (Homo sapiens (Human), UniProt P41143); test: Opioid receptor radioligand binding assay, DOR
Sequence of recombinant human delta (DOR) opioid receptor (P41143 whole entry, looked up): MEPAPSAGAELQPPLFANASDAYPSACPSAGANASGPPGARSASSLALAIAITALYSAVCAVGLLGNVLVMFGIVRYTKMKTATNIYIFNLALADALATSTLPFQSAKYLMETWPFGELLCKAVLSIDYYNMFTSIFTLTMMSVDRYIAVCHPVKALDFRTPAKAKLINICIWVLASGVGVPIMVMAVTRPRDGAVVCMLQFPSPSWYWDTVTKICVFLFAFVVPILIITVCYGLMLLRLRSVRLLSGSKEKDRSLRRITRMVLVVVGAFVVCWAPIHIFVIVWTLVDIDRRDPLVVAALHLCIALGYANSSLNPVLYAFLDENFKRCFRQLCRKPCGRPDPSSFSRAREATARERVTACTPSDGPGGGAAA

[3] = target: Opioid Kappa Receptor (recombinant human, HEK293 cells) (Homo sapiens (Human), UniProt P41145); test: cell-based; conditions: read-out: EC50
[4] = target: recombinant human mu (MOR) opioid receptor (Homo sapiens (Human), UniProt P35372); test: Opioid receptor radioligand binding assay, MOR
[5] = HEK293 cell membranes, 0.5 nM [3H]DADLE, read-out: DOR, IC50
[6] = HEK293 cell membranes, 0.5 nM [3H]DAMGO, read-out: MOR, IC50

SMILES | IC50 [1] [nM] | IC50 [2, 5] [nM] | EC50 [3] [nM] | IC50 [4, 6] [nM] | IC50 [2] [nM] | IC50 [4] [nM] | IC50 ([4]; read-out: MOR, IC50) [nM]
CC(C)C[C@@H](NC(=O)[C@@H](Cc1ccccc1)NC(=O)[C@H](N)Cc1ccccc1)C(=O)N[C@H](CCCCN)C(=O)N1CCNC(=O)C1 [Compound 13-14] | 0.21 | > 10000 | 12.9 | > 10000 |  |  | 
COC(=O)C1(N)CCN(C(=O)[C@@H](CCCCN)NC(=O)[C@@H](CC2CC2)NC(=O)[C@@H](Cc2ccccc2)NC(=O)[C@H](N)Cc2ccccc2)C1 (stereo partly shown) [Compound 118] (H-[dF][dF][dAla(cPr)][dK]-{Pyrrolidinyl(3-NH2,3-CO2Me)}) | 0.33 | > 10000 | 9.31 | > 10000 |  |  | 
CC(C)C[C@@H](NC(=O)[C@@H](Cc1ccccc1)NC(=O)[C@H](N)Cc1ccccc1)C(=O)N[C@H](CCCCN)C(=O)N1CCC(N)(C(=O)OCCN)C1 (stereo partly shown) [Compound 55] | 0.45 | > 10000 | 9.36 | 8530 |  |  | 
CC(C)C[C@@H](NC(=O)[C@@H](Cc1ccccc1)NC(=O)[C@H](N)Cc1ccccc1)C(=O)N[C@H](CCCCN)C(=O)N1CCC(NC(=O)C(=O)NC2CC2)CC1 [Compound 13-22] | 0.096 | > 10000 | 24.8 | > 10000 |  |  | 
CNC(=O)C(=O)N1CCC(NC(=O)[C@@H](CCCCN)NC(=O)[C@@H](CC(C)C)NC(=O)[C@@H](Cc2ccccc2)NC(=O)[C@H](N)Cc2ccccc2)CC1 [Compound 13-32] | 8.49 |  | 26.5 |  | > 10000 | 7110 | 
CC(C)C[C@@H](NC(=O)[C@@H](Cc1ccccc1)NC(=O)[C@H](N)Cc1ccccc1)C(=O)N[C@H](CCCCN)C(=O)NCc1n[nH]c(=O)[nH]1 [Compound 13-45] | 0.43 |  | 1.53 |  | > 10000 | > 10000 | 
CC(C)C[C@@H](NC(=O)[C@@H](Cc1ccccc1)NC(=O)[C@H](N)Cc1ccccc1)C(=O)N[C@H](CCCCN)C(=O)NCc1ccc(O)c(O)c1 [Compound 13-10] | 0.67 | > 10000 | 23.1 | > 10000 |  |  | 
CCOC(=O)C(N)C(=O)NC1CCN(C(=O)[C@@H](CCCCN)NC(=O)[C@@H](CC(C)C)NC(=O)[C@@H](Cc2ccccc2)NC(=O)[C@H](N)Cc2ccccc2)CC1 (stereo partly shown) [Compound 13-39] | 0.23 | > 10000 | 14.7 | > 10000 |  |  | 
CC(C)C[C@@H](NC(=O)[C@@H](Cc1ccccc1)NC(=O)[C@H](N)Cc1ccccc1)C(=O)N[C@H](CCCCN)C(=O)N1CC(=O)NC(=O)C1 [Compound 13-63] | 1.81 | > 10000 | 5.2 | > 10000 |  |  | 
CC(C)C[C@@H](NC(=O)[C@@H](Cc1ccccc1)NC(=O)[C@H](N)Cc1ccccc1)C(=O)N[C@H](CCCCN)C(=O)N1CCC2(CC1)NC(=O)NC2=O [Compound 71] | 0.16 | > 10000 | 5.4 |  |  |  | > 10000
COC(=O)C1(N)CCN(C(=O)[C@@H](CCCNC(=N)N)NC(=O)[C@@H](CC2CC2)NC(=O)[C@@H](Cc2ccccc2)NC(=O)[C@H](N)Cc2ccccc2)CC1 [Compound 126] (H-[dF][dF][dAla(cPr)][dR]-{Piperidin1yl(4-NH2,4-CO2Me)}) | 0.36 | > 10000 | 6.81 | 3030 |  |  | 
CC(C)C[C@@H](NC(=O)[C@@H](Cc1ccccc1)NC(=O)[C@H](N)Cc1ccccc1)C(=O)N[C@H](CCCCN)C(=O)N1CCOCCOCCOCC1 [Compound 13-15] | 0.41 | > 10000 | 51.5 | > 10000 |  |  | 
CCNC(=O)C(=O)N1CCC(NC(=O)[C@@H](CCCCN)NC(=O)[C@@H](CC(C)C)NC(=O)[C@@H](Cc2ccccc2)NC(=O)[C@H](N)Cc2ccccc2)CC1 [Compound 13-36] | 0.49 | > 10000 | 37.7 | > 10000 |  |  | 
CC(C)C[C@@H](NC(=O)[C@@H](Cc1ccccc1)NC(=O)[C@H](N)Cc1ccccc1)C(=O)N[C@H](CCCCN)C(=O)N1CCC(N)(C(=O)OC2CC2)C1 (stereo partly shown) [Compound 40] | 0.41 |  | 11.9 |  | > 1000 | > 10000 | 
CNC(=O)C(=O)N1CCN(C(=O)[C@@H](CCCCN)NC(=O)[C@@H](CC(C)C)NC(=O)[C@@H](Cc2ccccc2)NC(=O)[C@H](N)Cc2ccccc2)CC1 [Compound 13-27] | 0.53 | > 10000 | 12 | > 10000 |  |  | 
CC(C)C[C@@H](NC(=O)[C@@H](Cc1ccccc1)NC(=O)[C@H](N)Cc1ccccc1)C(=O)N[C@H](CCCCN)C(=O)NCc1cccnc1C(=O)O [Compound 13-7] | 11.4 |  | 24.7 |  | > 10000 | > 10000 | 
